Data set [1] can be described thus: Water-solubility of AS-3201. Format: physicochemical. The conditions noted are these: in the range of low pH. The text has this:
The “micronized AS-3201” means powders of AS-3201 having a mean particle size of less than about 20 μm. The “mean particle size” means a particle size of being at 50% in cumulative particle distribution on weight or volume basis (ref., HA Lieberman et al., “Pharmaceutical Dosage Forms: Tablets”, Marcel Dekker, Inc., New York, 1990, vol. 2, 174–186; Kouichi IINOYA (edit.) “Handbook of Powder and Particle Measurement (in Japanese)”, The NIKKAN KOGYO SHINBUN LTD., 1981, 29–36). The “dissolution test” means a test in which the dissolution of AS-3201 from test pharmaceutical compositions in an amount corresponding to 20 mg of AS-3201 is evaluated according to Paddle method (50 rpm) specified in the Twelfth Edition of the Pharmacopoeia of Japan, using a 0.2 M phosphate buffer (pH 6.5, 900 ml) as a test solution, and assaying AS-3201 by spectrophotometry at 300 nm. The “pKa1” means an acid dissociation exponent of an acidic substance at 25° C. in an infinitely diluted solution thereof. When an acidic substance is a polybasic acid, it means an acid dissociation exponent at the first step of dissociation. The “water-solubility” means a maximum amount of a solute being dissolved in 100 ml of water. The term “about” is used with the intention of including values following said term.

A short description of the next data set: Acidity (pKa) of AS-3201. It is filed as physicochemical.
Data set [2] can be described thus: Plasma concentration after administration. As to conditions: among the individuals to be administered. It is filed as in vivo.
The next data set has as its target aldose reductase (Homo sapiens, UniProt P15121). As to conditions: disclosed in earlier patents (U.S. Pat. No. 5,258,382, JP-A-6-192222, JP-A-8-176105); cited from earlier work.

The values below come from US7141249B2, “Rapidly soluble drug composition” (Dainippon Sumitomo Pharma Co., Ltd., priority 1997, dated 2006).

For orientation: pKa means the negative logarithm of the acid dissociation constant. As for `O=C1C[C@@]2(C(=O)N1)C(=O)N(Cc1ccc(Br)cc1F)C(=O)c1cccn12` [AS-3201, (R)-2-(4-bromo-2-fluorobenzyl)-1,2,3,4-tetrahydropyrrolo[1,2-a]pyrazine-4-spiro-3′-pyrrolidine-1,2′,3,5′-tetrone], in data set [1], the water-solubility result was “several”. In “Acidity (pKa) of AS-3201”, this compound displayed a pKa of 5.6 to 5.8. Moreover, the “plasma concentration of AS-3201 (variation among individuals)” value in data set [2] is “varies widely”. Further, on aldose reductase, the “aldose reductase inhibitory activity” value is “potent”.
